Laboratory results: patent US20100093714A1, “AMIDES OF THIENO[2,3-d]PYRIMIDINE AND THEIR USE AS ADENOSINE A2a RECEPTOR ANTAGONISTS” (priority 2008, published 2010)
Structures can show the parent of a compound that is named as a salt.

How the values were obtained:
[1] = target: T1, human adenosine A2a receptor (Homo sapiens, UniProt P29274); assay: Adenosine A2a Receptor Functional Assay (A2AGAL2); type: cell-based; details: CHO-K1 cells, cAMP inducible beta-galactosidase reporter, 15 nM NECA agonist challenge
T1 construct: expressed in transfected cells; host or cells: CHO-K1
Procedure: (§1) To initiate the functional assay, cryopreserved CHO-K1 cells overexpressing the human adenosine A2a receptor and containing a cAMP inducible beta-galactosidase reporter gene were thawed, centrifuged, DMSO containing media removed, and then seeded with fresh culture media into clear 384-well tissue culture treated plates (BD #353961) at a concentration of 10K cells/well. Prior to assay, these plates were cultured for two days at 37° C., 5% CO2, 90% Rh. On the day of the functional assay, culture media was removed and replaced with 45 uL assay medium (Hams/F-12 Modified (Mediatech #10-080CV) supplemented w/0.1% BSA). Test compounds were diluted and 11 point curves created at a 1000× concentration in 100% DMSO. Immediately after addition of assay media to the cell plates, 50 nL of the appropriate test compound antagonist or agonist control curves were added to cell plates using a Cartesian Hummingbird. Compound curves were allowed to incubate at room temperature on cell plates for approximately 15 minutes before addition of a 15 nM NECA (Sigma E2387) agonist challenge (5 uL volume). A control curve of NECA, a DMSO/Media control, and a single dose of Forskolin (Sigma F3917) were also included on each plate. After additions, cell plates were allowed to incubate at 37° C., 5% CO2, 90% Rh for 5.5-6 hours. After incubation, media was removed, and cell plates were washed 1×50 uL with DPBS w/o Ca & Mg (Mediatech 21-031-CV). Into dry wells, 20 uL of 1× Reporter Lysis Buffer (Promega E3971 (diluted in dH2O from 5× stock)) was added to each well and plates frozen at −20° C. overnight. For β-galactosidase enzyme calorimetric assay, plates were thawed out at room temperature and 20 μL 2× assay buffer (Promega) was added to each well. Color was allowed to develop at 37° C., 5% CO2, 90% Rh for 1-1.5 h or until reasonable signal appeared. The calorimetric reaction was stopped with the addition of 60 μL/well 1M sodium carbonate. Plates were counted at 405 nm on a SpectraMax Microplate Reader (Molecular Devices). Data was analyzed in Microsoft Excel and IC/EC50 curves were fit using a standardized macro.

[2] = target: T2, human adenosine A1 receptor (Homo sapiens, UniProt P30542); assay: Adenosine A1 Receptor Functional Assay (A1GAL2); type: cell-based; details: CHO-K1 cells, cAMP inducible beta-galactosidase reporter, 4nM r-PIA/1 uM Forskolin agonist challenge
T2 construct: expressed in transfected cells; host or cells: CHO-K1
T2 sequence (P30542 1-326): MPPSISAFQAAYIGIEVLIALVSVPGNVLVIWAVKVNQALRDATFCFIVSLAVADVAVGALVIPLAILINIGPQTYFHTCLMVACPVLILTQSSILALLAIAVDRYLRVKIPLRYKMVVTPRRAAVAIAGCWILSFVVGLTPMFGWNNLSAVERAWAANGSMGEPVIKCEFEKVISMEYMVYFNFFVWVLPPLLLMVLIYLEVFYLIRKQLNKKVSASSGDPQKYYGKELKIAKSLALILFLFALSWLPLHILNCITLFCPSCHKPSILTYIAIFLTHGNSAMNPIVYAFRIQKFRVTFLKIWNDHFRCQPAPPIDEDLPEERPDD
Procedure: as §1, with “A1” for “A2a”, “4nM r-PIA” for “15 nM NECA”, “P4532)/1 uM Forskolin (Sigma F3917)” for “E2387)”, “r-PIA in 1 uM Forskolin,” for “NECA,”, “Forskolin” for “Forskolin (Sigma F3917)”

T1 sequence (P29274 whole entry): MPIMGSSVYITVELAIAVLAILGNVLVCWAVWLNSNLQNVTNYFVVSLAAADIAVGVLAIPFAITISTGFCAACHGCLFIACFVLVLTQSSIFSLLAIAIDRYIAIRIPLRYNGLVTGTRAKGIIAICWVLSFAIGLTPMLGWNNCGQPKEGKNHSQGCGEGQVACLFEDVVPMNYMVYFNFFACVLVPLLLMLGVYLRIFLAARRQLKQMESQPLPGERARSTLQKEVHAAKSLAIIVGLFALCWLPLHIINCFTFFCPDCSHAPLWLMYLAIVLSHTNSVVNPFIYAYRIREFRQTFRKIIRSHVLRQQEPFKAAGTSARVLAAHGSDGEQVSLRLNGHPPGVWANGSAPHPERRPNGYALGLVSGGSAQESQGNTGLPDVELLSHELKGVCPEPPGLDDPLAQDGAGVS

Compound	Ki [1] [nM]	Ki [2] [nM]
C[C@@H]1CN(C(=O)c2cc3c(N)nc(-c4cccc(C#N)c4)nc3s2)C[C@H](C)O1 [Example 1, 3-[4-Amino-6-(2,6-dimethyl-morpholine-4-carbonyl)-thieno[2,3-d]pyrimidin-2-yl]-benzonitrile]	184	598
Nc1nc(-c2nccs2)nc2sc(C(=O)N3CCOCC3)cc12 [Example 4, (4-Amino-2-thiazol-2-yl-thieno[2,3-d]pyrimidin-6-yl)-morpholin-4-yl-methanone]	80.9	1430
Nc1nc(-c2ncco2)nc2sc(C(=O)N3CCOCC3)cc12 [Example 6, (4-Amino-2-oxazol-2-yl-thieno[2,3-d]pyrimidin-6-yl)-morpholin-4-yl-methanone]	361	> 10000
Cc1csc(-c2nc(N)c3cc(C(=O)NCCN4CCS(=O)(=O)CC4)sc3n2)n1 [Example 7, 4-Amino-2-(4-methyl-thiazol-2-yl)-thieno[2,3-d]pyrimidine-6-carboxylic acid[2-(1,1-dioxo-1-thiomorpholin-4-yl)-ethyl]-amide]	193	~927
Cc1csc(-c2nc(N)c3cc(C(=O)N4CCN(c5ccncc5)CC4)sc3n2)n1 [Example 8, [4-Amino-2-(4-methyl-thiazol-2-yl)-thieno[2,3-d]pyrimidin-6-yl]-(4-pyridin-4-yl-piperazin-1-yl)-methanone]	222	> 1070
CC(C)(C)N1CCN(C(=O)c2cc3c(N)nc(-c4cccc(C#N)c4)nc3s2)CC1 [Example 9, 3-[4-Amino-6-(4-tert-butyl-piperazine-1-carbonyl)-thieno[2,3-d]pyrimidin-2-yl]-benzonitrile]	94.2	603
N#Cc1cccc(-c2nc(N)c3cc(C(=O)NCCN4CCOCC4)sc3n2)c1 [Example 10, 4-Amino-2-(3-cyano-phenyl)-thieno[2,3-d]pyrimidine-6-carboxylic acid(2-morpholin-4-yl-ethyl)-amide]	34.7	52.6
Cc1csc(-c2nc(N)c3cc(C(=O)NCCc4cccnc4)sc3n2)n1 [Example 11, 4-Amino-2-(4-methyl-thiazol-2-yl)-thieno[2,3-d]pyrimidine-6-carboxylic acid(2-pyridin-3-yl-ethyl)-amide]	17.9	530
Cc1csc(-c2nc(N)c3cc(C(=O)NC4CCOCC4)sc3n2)n1 [Example 12, 4-Amino-2-(4-methyl-thiazol-2-yl)-thieno[2,3-d]pyrimidine-6-carboxylic acid(tetrahydro-pyran-4-yl)-amide]	21.9	443
Nc1nc(-c2ncco2)nc2sc(C(=O)NC3CCOCC3)cc12 [Example 13, 4-Amino-2-oxazol-2-yl-thieno[2,3-d]pyrimidine-6-carboxylic acid(tetrahydro-pyran-4-yl)-amide]	99.2	> 1000

The remaining lines, values ahead:

Ki [1] [nM]	Ki [2] [nM]	Compound
1550	> 610	Nc1nc(-c2ccc(C3CC3)o2)nc2sc(C(=O)NCc3cccnc3)cc12 [Example 14, 4-Amino-2-(5-cyclopropyl-furan-2-yl)-thieno[2,3-d]pyrimidine-6-carboxylic acid(pyridin-3-ylmethyl)-amide]
29	113	N#Cc1cccc(-c2nc(N)c3cc(C(=O)NCc4ccccn4)sc3n2)c1 [Example 15, 4-Amino-2-(3-cyano-phenyl)-thieno[2,3-d]pyrimidine-6-carboxylic acid(pyridin-2-ylmethyl)-amide]
115	467	N#Cc1cccc(-c2nc(N)c3cc(C(=O)NCCc4cccnc4)sc3n2)c1 [Example 16, 4-Amino-2-(3-cyano-phenyl)-thieno[2,3-d]pyrimidine-6-carboxylic acid(2-pyridin-3-yl-ethyl)-amide]
528	> 923	Cc1cc(-c2nc(N)c3cc(C(=O)N4CCOCC4)sc3n2)no1 [Example 17, [4-Amino-2-(5-methyl-isoxazol-3-yl)-thieno[2,3-d]pyrimidin-6-yl]-morpholin-4-yl-methanone]
195	> 948	CCN1CCN(C(=O)c2cc3c(N)nc(-c4nc(C)cs4)nc3s2)CC1 [Example 18, [4-Amino-2-(4-methyl-thiazol-2-yl)-thieno[2,3-d]pyrimidin-6-yl]-(4-ethyl-piperazin-1-yl)-methanone hydrochloride]
14.2	21.9	N#Cc1cccc(-c2nc(N)c3cc(C(=O)NCc4cccnc4)sc3n2)c1 [Example 19, 4-Amino-2-(3-cyano-phenyl)-thieno[2,3-d]pyrimidine-6-carboxylic acid(pyridin-3-ylmethyl)-amide]
109	508	Cc1csc(-c2nc(N)c3cc(C(=O)NCc4ccc(Cl)nc4)sc3n2)n1 [Example 20, 4-Amino-2-(4-methyl-thiazol-2-yl)-thieno[2,3-d]pyrimidine-6-carboxylic acid(6-chloro-pyridin-3-yl-methyl)-amide hydrochloride]
310	26.9	Cc1cc(-c2nc(N)c3cc(C(=O)NCc4cccnc4)sc3n2)no1 [Example 21, 4-Amino-2-(5-methyl-isoxazol-3-yl)-thieno[2,3-d]pyrimidine-6-carboxylic acid(pyridin-3-ylmethyl)-amide]
367	> 1310	Cc1csc(-c2nc(N)c3cc(C(=O)N4CCN(C(C)(C)C)CC4)sc3n2)n1 [Example 23, [4-Amino-2-(4-methyl-thiazol-2-yl)-thieno[2,3-d]pyrimidin-6-yl]-(4-tert-butyl-piperazin-1-yl)-methanone]
137	422	Nc1nc(-c2ncco2)nc2sc(C(=O)NCc3ccccn3)cc12 [Example 24, 4-Amino-2-oxazol-2-yl-thieno[2,3-d]pyrimidine-6-carboxylic acid(pyridin-2-ylmethyl)-amide]
287	> 1310	Nc1nc(-c2ncco2)nc2sc(C(=O)NCCN3CCOCC3)cc12 [Example 25, 4-Amino-2-oxazol-2-yl-thieno[2,3-d]pyrimidine-6-carboxylic acid(2-morpholin-4-yl-ethyl)-amide]
92.9	> 1310	Nc1nc(-c2nc(C(F)(F)F)cs2)nc2sc(C(=O)N3CCOCC3)cc12 [Example 26, [4-Amino-2-(4-trifluoromethyl-thiazol-2-yl)-thieno[2,3-d]pyrimidin-6-yl]-morpholin-4-yl-methanone]
40.3	245	Cc1csc(-c2nc(N)c3cc(C(=O)NCc4cccnc4)sc3n2)n1 [Example 27, 4-Amino-2-(4-methyl-thiazol-2-yl)-thieno[2,3-d]pyrimidine-6-carboxylic acid(pyridin-3-ylmethyl)-amide]
